From patent publication US8338482B2, “Modulating notch1 signaling pathway for treating neuroendocrine tumors” (Wisconsin Alumni Research Foundation, priority 2007, dated 2012)

Columns and labels:
Hedgehog pathway = details: murine models; cited from earlier work
Hedgehog signaling = details: 50 mg/kg/d i.p.
Text: Sixty nude mice undergo intrasplenic injection of NE tumor cells as described above. […] Treatment continues for 8 weeks.
2) Interval assessment of tumor burden. All animals undergo microCT scanning every week for 8 weeks as described above. Blood is sampled weekly for measurement of serotonin or calcitonin levels.
3) Measurement of Hedgehog signaling inhibition. […] The liver lesions from animals sacrificed at 2 weeks intervals (n=3 per group) are microdissected from normal liver and total RNA extracted. Tumors in cycloamine treated mice are analyzed for downregulation of Gli1 expression by real-time PCR when compared to control animals.

Compound: CC1=C2C[C@H]3[C@@H](CC=C4C[C@@H](O)CC[C@@]43C)[C@@H]2CC[C@]12O[C@@H]1C[C@H](C)CN[C@H]1[C@H]2C [Cyclopamine]
- Hedgehog signaling (Hedgehog pathway): completely blocked
- tumors dependent on Hedgehog signaling (Hedgehog pathway): caused regression
- Hedgehog signaling within the NE tumor cells (Hedgehog signaling): confirmed to inhibit
